# Reference: patent US12109266B2, “Modulating gabarap to modulate immunogenic cell death” (Dana-Farber Cancer Institute, Inc., priority 2020, dated 2024)
# “Also recorded” adds a separate entry of the source.
# Legend:
# cGAS/STING pathway = test: Western blot of cGAS/STING pathway; format: cell-based, human
# Description: Cell lysis was performed in RIPA buffer (Boston Bio Products) supplemented with Halt protease and phosphatase inhibitor cocktail (ThermoFisher Scientific). SDS-PAGE was performed on NuPage Bis-Tris gels (ThermoFisher Scientific) using MOPS or MES running buffer. Gels were dry transferred onto 0.45 μm nitrocellulose membranes using the iBlot® Dry Blotting System (ThermoFisher Scientific). The following Abs were purchased from Cell Signaling Technology: EIF2A (#5324), p-EIF2A (#3398), ATF4 (#11815), CHOP (2895), CALR (#12238), cGAS (#15102), TBK1 (#3504), pTBK1 (#5483), pIRF3 (#29047), STING (#13647). GAPDH (#2118) and B-ACTIN (#4970) were used as loading controls.
# naive T cells = test: Analysis of naive T cell proliferation; format: cell-based, human; details: 5 day co-culture with BTZ-treated AMO1 or NCI-H929 cells and DCs
# Description: DCs were generated from healthy donors PBMCs as described above (“Generation of Mo-DCs” section). Naïve T cells were negatively selected from CD14-PBMCs from the same donors using the Naive Pan T Cell Isolation Kit (Miltenyi Biotec) and frozen. When DCs were generated, either untreated or BTZ-treated multiple myeloma cells were co-cultured with DCs and naïve T cells labeled with CellTrace™ Violet Cell Proliferation Kit (ThermoFisher Scientific) for 5 days. Naïve T cells were also cultured in the absence of multiple myeloma cells and in the presence of phytohemagglutinin (PHA) (20 ug/ml) as positive control. Before analysis, cells were stained with: CD8-FITC (#344704), CD4-PerCP/Cyanine5.5 (#317428) (BioLegend); and LIVE/DEAD™ Fixable Aqua dead Cell Stain (#L34966) (ThermoFisher Scientific). Proliferating CD4 and CD8 T cell subsets were then analyzed using the FlowJo software (Becton, Dickinson & Company).
# [1] = system: AMO1 and NCI-H929 multiple myeloma cell lines; test: Apoptosis assay (Annexin-V/7-AAD flow cytometry); format: cell-based, human; details: BTZ 1-10 nM, 16 h
# Description: (§1) Apoptosis was evaluated by Annexin-V/7-Aminoactinomycin D (7-AAD) staining and flow cytometric analysis using the PE Annexin V Apoptosis Detection Kit I (BD Biosciences), following the manufacturer's instructions.
# (§2) Apoptosis was evaluated by Annexin-V/7-Aminoactinomycin D (7-AAD) staining and flow cytometric analysis using the PE Annexin V Apoptosis Detection Kit I (BD Biosciences).
# 5TGM1 tumors = test: RNA-seq analysis from mouse tumors; format: in vivo; details: immunocompetent mice
# Description: Tumors growing from both 5TGM1 WT or calrKO cells in C57BL/KaLwRijHsd mice treated with either PBS or BTZ (3/group) were harvested and used to extract RNA using the RNeasy® kit (Qiagen). After passing quality control, RNAseq was performed using Illumina NextSeq 500 Single-End 75 bp (SE75) and analyzed following the VIPER NGS analysis pipeline (Cornwell et al. (2018) BMC Bioinform. 19:135) comparing BTZ-treated mice vs PBS in each experimental setting. Listing of differentially expressed genes (DEGs) were applied to gene set enrichment analysis (GSEA) and Cytoscape (Bindea et al. (2009) Bioinform. 25:1091-1093; Bindea et al. (2013) Bioinform. 29:661-663) software to reveal biological pathways modulated by BTZ.
# Tumors growing from both 5TGM1 WT or Calr^KO cells in C57BL/KaLwRijHsd mice treated with either PBS or BTZ (3/group) were harvested and used to extract RNA using the RNeasy kit (Qiagen). After passing quality control, RNAseq was performed using Illumina NextSeq 500 Single-End 75 bp (SE75) and analyzed following the VIPER NGS analysis pipeline (Cornwell et al. (2018) BMC Bioinformatics; 19(1):135), comparing BTZ-treated mice vs PBS in each experimental setting. […] Analysis of expression of human orthologs of these 90 genes in MM patients and correlation with patient clinical outcome was then analyzed as detailed below. […]
# U266 cells = test: Cytotoxicity assay (T cell lysis of MM cells); format: cell-based, human; details: T cells from BTZ co-culture, 24 h
# Description: After coculture of HLA-matched DCs and T cells from healthy donors with either untreated or BTZ-treated U266 cells for 5 days, T cells were negatively selected using the Pan T cell Isolation Kit (Miltenyi Biotec) and plated in round bottom 96-well plates with naïve U266 cells pre-stained with CFSE dye (ThermoFisher Scientific) at different target:effector (T:E) ratios for 24 h in the presence of IL-2 (#130-097-74, Miltenyi Biotec). Then cells were 7AAD-stained, and detection of viable CFSE-gated cells was performed using BD LRSFortessa X-20 cytometer.
# STC1 = test: Western blot of STC1; format: cell-based
# [2] = system: 5TGM1 multiple myeloma cell line; test: Apoptosis assay (Annexin-V/7-AAD flow cytometry); format: cell-based, murine
# Description: as §1, §2
structure (smiles),measurement,setting,value
"CC(C)C[C@H](NC(=O)[C@H](Cc1ccccc1)NC(=O)c1cnccn1)B(O)O [BTZ, bortezomib]","cGAS/STING pathway activation (cGAS, pTBK1, pIRF3)","cGAS/STING pathway; AMO1 (BTZ 5-10 nM, 16 h) and NCI-H929 WT",induces accumulation of the cytosolic DNA sensor cGAS; also recorded: induces IFN-I signaling and promotes T cell activation via cGAS/STING pathway
same,cGAS level,"cGAS/STING pathway; AMO1 STING^KO, BTZ 5 nM",significantly accumulated cGAS
same,p-TBK1 downstream signaling,"cGAS/STING pathway; AMO1 STING^KO, BTZ 5 nM",blocked activation of downstream signaling including p-TBK1
same,proliferation of CD4+ and CD8+ naive T cells,naive T cells,increased proliferation of both CD4+ and CD8+ naïve T cells; also recorded: promotes proliferation of CD4+ and CD8+ naïve T cells
same,"multiple myeloma cell death, as measured by phosphatidylserine exposure",[1],induced multiple myeloma cell death in a dose-dependent manner
same,transcriptional changes in tumors (RNA-seq),5TGM1 tumors; 5TGM1 Calr^KO tumors,decreased this effect
same,transcriptional changes in tumors (RNA-seq),"5TGM1 tumors; 5TGM1 WT tumors, two BTZ treatments 0.5 mg/kg",switched on a transcriptional program that is linked to the activation of an immune response; also recorded: consistent with activation of an immune response
same,lysis of MM cells by T cells isolated after co-culture,U266 cells,able to efficiently induce lysis of multiple myeloma cells
same,STC1 protein levels,STC1; GABARAP^KO cells after BTZ,intracellular levels of STC1 are even higher after BTZ treatment
same,STC1 protein levels,"STC1; WT cells (5TGM1, AMO1) after BTZ",STC1 protein levels decrease in WT cells after BTZ treatment
same,"multiple myeloma cell death, as measured by phosphatidylserine exposure","[2]; 5TGM1, BTZ 1-10 nM, 16 h",induced multiple myeloma cell death in a dose-dependent manner
same,apoptosis (annexin-V-positive cells),"[2]; 5TGM1 WT vs Calr^KO clones, BTZ 7.5 nM",triggered apoptosis in both 5TGM1 WT cells and the Calr^KO clones at the same extent
